# Experimental data as given in patent US20190116795A1, “USE OF TENVERMECTIN IN CONTROL OF HARMFUL INSECTS IN AGRICULTURAL AND FOREST CROPS” (ZHEJIANG HISUN PHARMACEUTICAL CO., LTD., priority 2016, published 2019).
# Experiments:
# [1] = system: Laodelphax striatellus imagoes; assay: whole plant or invertebrate
# Method: Each original medicine was dissolved in DMF and formulated into a 10000 mg/L solution for later use.
# Test insect source: The Laodelphax striatellus imagoes were collected in the rice fields of Jiaxing, Zhejiang, and were raised indoors with rice seedlings.
# The soaking seedling method was used in this test. The test agents were diluted with tap water into five series of concentrations on the basis of pre-test to be used as test solutions. Specifically, lambda-cyhalothrin and imidacloprid were diluted to 5 mg/L, 10 mg/L, 25 mg/L, 50 mg/L and 100 mg/L; abamectin was diluted to 0.25 mg/L, 0.5 Mg/L, 1.0 mg/L, 2.5 mg/L and 5.0 mg/L; tenvermectin A was diluted to 0.05 mg/L, 0.10 mg/L, 0.25 mg/L, 0.5 mg/L and 1.0 mg/L. Rice seedlings that are sown indoors for about 25 days and have no rice planthopper eggs were taken, a few rice roots were left, the seedlings were soaked in pre-formed solution for 30 seconds then they were taken out and dried, and were put into a 3 cm×20 cm test tube. There was a little water at the bottom of the tube. 2-3 rice seedlings per tube, three repetitions per treatment, and the one treated with water was used as a control. Each tube receives 40-50 heads of Laodelphax striatellus, and the tubes were sealed with black cloth and were placed in a worm room under a temperature of (26±1) ° C. After 72 hours of treatment, the number of dead insects was checked. […] Experimental data statistics and analysis were performed using spss 19 software.
# The relative toxicity index of the agent having the largest LC50 was set to be 1, and the relative toxicity index of each agent was determined by dividing the maximum LC50 by the LC50 value of each agent.
# [2] = system: Coptotermes formosanus Shiraki; assay: Indoor toxicity against Coptotermes formosanus Shiraki, topical drop with microinjector; format: in vivo
# Method: Specifically, abamectin was diluted to 0.01 mg/L, 0.025 mg/L, 0.05 mg/L, 0.10 mg/L and 0.25 mg/L; tenvermectin A and tenvermectin B were diluted to 0.001 mg/L, 0.0025 mg/L, 0.005 mg/L, 0.01 mg/L and 0.025 mg/L. The termites to be tested were placed in culture dishes with a diameter of 15 cm, and 20 worker ants were placed in each dish. During the test, a microinjector was used to drop 1 μI of the solution to the thorax and abdome of each termite for a total of 3 repetitions. One fungus comb was placed in each dish for termites to inhabit and a wet absorbent cotton ball was placed to moisturize. After completing dropping the solution, the culture dish was placed in a chamber under a constant temperature of 18±1° C. and a constant humidity and was cultivated in dark conditions, the death conditions were observed 24 hours and 48 hours after dropping the solution respectively. A writing brush was used to touch the various parts of the bodies of the termites and the termites that are completely immobile were judged to be dead.
# zebrafish = assay: Toxicity test on zebrafish, semi-static method; format: in vivo, Brachydanio rerio
# Method: Test fish and water: zebrafish (Brachydanio rerio) were purchased from Zhejiang Academy of Agricultural Sciences and were of uniform size with an average body length of 2-3 cm and an average body weight of 0.3 g. They were domesticated for 7 days indoors before the test. The natural mortality rate was zero. Feeding was stopped 1 day before the test and the fish were not fed during the test. The test water was tap water after removing residual chlorine by exposure to the sun for more than 24 hours, and the pH was 6.8.
# The sample was formulated into 50 mg/ml mother liquor with DMF.
# Method: Semi-static method. Three level differences were set for each sample:
# 0.5 ppm, 1.0 ppm and 2.0 ppm, and three sets of parallels were set for each level difference, 10 zebrafish were raised for each group, and blank controls (one group without agents and one group with only solvent) were set. The corresponding volume of mother liquor was taken according to the concentration as required for each sample, and the volume of each sample was adjusted to 150 μl with DMF, and then each sample was added to the test group (containing 1.6 L of water). The room temperature was controlled at 22±2° C. for 96 hours, and the water was changed every 24 hours and the samples were re-added. The fish mortality rate was recorded for the first 8 hours and at 24, 48, 72, and 96 hours, and the dead fish were removed in time. Finally, the agents were divided into three grades according to the values of LC50: low-toxic pesticides with a LC50>10 ppm, middle-toxic pesticides with a LC50 of 1.0-10 ppm, and high-toxic pesticides with a LC50<1.0 ppm.
# cabbage Phyllotreta = assay: Field efficacy test against cabbage Phyllotreta; format: in vivo; details: 1 day, 3 days and 7 days after medication
# Method: In the laboratory, the above-mentioned original medicines were respectively formulated into the following formulations for later use: 1.8% abamectin emulsifiable concentrate, 1.8% tenvermectin A emulsifiable concentrate, 1.8% tenvermectin B emulsifiable concentrate, 5% imidacloprid emulsifiable concentrate, 5% acetamiprid emulsifiable concentrate, 2.5% lambda-cyhalothrin emulsifiable concentrate.
# The test was conducted in Linhai City, and the test crop was cabbage, and the object to be controlled was Phyllotreta.
# The experiment consisted of 7 treatments, 3 replicates per treatment, 21 sections in total. The sections were randomly arranged, the area for each section was 66.7 m^2. A type of knapsack manual sprayer was used to spray once, the amount of each section was calculated according to the amount of 50 ml/mu, and the leaves were sprayed evenly. Each treatment was isolated from each other to avoid mutual interference. A blank control was set, and the blank control was sprayed with water. The population base of insects was investigated before medication, and the number of live insects was investigated 1 day, 3 days, and 7 days after medication, and a total of 4 investigations were conducted. 20 plants were randomly investigated per section. The rate of reduction of population was calculated and the control effect was corrected. No other pesticides were used during the test. […]
# Bemisia tabaci imagoes = assay: Indoor toxicity against Bemisia tabaci imagoes, liquid membrane impregnation method of blades; format: in vivo
# Method: The liquid membrane impregnation method of blades was used. […] One tomato leaf was placed in each culture dish. Three repetitions per treatment, a leaf was soaked with water, dried, and then was placed in a culture dish to be used as a control. The Bemisia tabaci imagoes were gently patted into the culture dish, about 30 to 40 imagoes in each dish. The dishes were sealed with plastic wrap, several small holes were made on the plastic wrap to facilitate ventilation. After 24 hours, the death of Bemisia tabaci imagoes was checked under a binocular microscope (the anatomical needle was used to gently touch the Bemisia tabaci imagoes, and the motionless ones were regarded to be dead). Experimental data statistics and analysis were performed with spss 19 software.
smiles,measurement,setting,value
"CO[C@H]1CC(OC2[C@H](C)OC(OC3/C(C)=C/C[C@@H]4C[C@@H](C[C@]5(CCC(C)[C@@H](C)O5)O4)OC(=O)[C@@H]4C=C(C)[C@@H](O)[C@H]5OC/C(=C\C=C\C3C)[C@]54O)C[C@@H]2OC)O[C@@H](C)C1O (stereo partly shown) [Tenvermectin A, tenvermectin A]",LC50,[1]; in vivo,0.296 mg/L
same,Relative toxicity,"[1]; maximum LC50 divided by LC50 of each agent, imidacloprid = 1",107.490
same,LC50,[2]; in vivo,0.0086 mg/L
same,Relative toxicity,"[2]; maximum LC50 divided by LC50 of each agent, abamectin = 1",4.77
same,Surviving condition (survival rate %),"zebrafish; 0.5 ppm, 8 h",100%
same,Surviving condition (survival rate %),"zebrafish; 0.5 ppm, 24 h",100%
same,Surviving condition (survival rate %),"zebrafish; 0.5 ppm, 48 h",100%
same,Surviving condition (survival rate %),"zebrafish; 0.5 ppm, 72 h",100%
same,Surviving condition (survival rate %),"zebrafish; 0.5 ppm, 96 h",100%
same,Surviving condition (survival rate %),"zebrafish; 1.0 ppm, 8 h",100%
same,Surviving condition (survival rate %),"zebrafish; 1.0 ppm, 24 h",100%
same,Surviving condition (survival rate %),"zebrafish; 1.0 ppm, 48 h",100%
same,Surviving condition (survival rate %),"zebrafish; 1.0 ppm, 72 h",100%
same,Surviving condition (survival rate %),"zebrafish; 1.0 ppm, 96 h",100%
same,Surviving condition (survival rate %),"zebrafish; 2.0 ppm, 8 h",100%
same,Surviving condition (survival rate %),"zebrafish; 2.0 ppm, 24 h",100%
same,Surviving condition (survival rate %),"zebrafish; 2.0 ppm, 48 h",100%
same,Surviving condition (survival rate %),"zebrafish; 2.0 ppm, 72 h",93%
same,Surviving condition (survival rate %),"zebrafish; 2.0 ppm, 96 h",80%
same,control effect on cabbage Phyllotreta (in words),cabbage Phyllotreta,no control effect
same,LC50,"Bemisia tabaci imagoes; Bemisia tabaci imagoes, soaked tomato leaves, death checked after 24 hours",0.023 mg/L
same,Relative toxicity,"Bemisia tabaci imagoes; maximum LC50 divided by LC50 of each agent, acetamiprid = 1",110.478
